Measurements from patent US9220706B2, “Inhibition of leukemic stem cells by PP2A activating agents” (Ohio State Innovation Foundation, priority 2012, dated 2015).
Structures can show the parent of a compound that is named as a salt. Blank lines part the entries; values can stand above or below the compound they belong to.

Columns and labels:
[1] = test system: β-catenin-driven (LEF/TCF) transcriptional activity; assay: LEF/TCF reporter assay; format: cell-based, human; conditions: CD34^+/CD38^− CML and 32D-BCR/ABL cells
Description: LEF/TCF reporter assay. CD34+/CD38− CML cells were transduced with pBAR or pfuBAR (negative control) ®-catenin lentiviral reporter constructs (54), puromycin-selected and treated with the indicated drugs. Luciferase was measured using the Bright-Glo Luciferase system (Promega).

PP2A [2] = biological target: T1, PP2A (Homo sapiens, UniProt P67775); conditions: Roberts et al., Cancer Res 2010; cited from earlier work
T1 construct: PP2Ac assays from whole cell lysates; endogenous in cells; host or cells: CD34+/CD38- and CD34+/CD38+ primary CML and normal bone-marrow cells; immunoprecipitated with Millipore PP2Ac antibody

[3] = test system: CML cells (CFSE^max/CD34^+, CD34^+/CD38^−, CD34^+); assay: Annexin-V/7-AAD apoptosis staining; format: cell-based, human; conditions: for effect on FTY720-induced apoptosis of quiescent cells: CD34^+ CML cells, GSK-3β inhibitor with FTY720
Description: (§1) CFSE-mediated tracking of cell division. Carboxyfluorescein diacetate succinimidyl diester (CFSE)-stained cells (CellTrace CFSE Proliferation Kit: Invitrogen) were cultured in the presence of the indicated drugs (dosed at time zero and at day three), and the cells were harvested after 3 or 6 days in culture, and stained with anti-CD34 PE, Annexin-V V450, and the viability stain 7-AAD (BD Bioscience) to determine the number of viable quiescent cells (CFSEmax/CD34^+/7-AAD− cells) and the percentage of quiescent and apoptosis-committed cells (CFSEmax/CD34+/Annexin V+/7-AAD±). Cells were sorted into dividing and quiescent populations for Western blot analysis. For assessment of mouse quiescent leukemic HSCs, Lin- cells from 8 week-induced SCLtTA/BCR-ABL1 mice were CFSE-stained and used as described above. Quiescent cells (CFSE^max/CD34^+) were reported as a fraction of the initial number of CD34^+ cells.

[4] = test system: CFSE^max/CD34^+ CML cells; assay: CFSE-mediated tracking of quiescent cells, CML; format: cell-based, human
Description: as §1

PP2A [5] = biological target: T1, PP2A; assay: PP2A phosphatase assay; format: cell-based
Description: PP2A phosphatase assay. PP2Ac assays from whole cell lysates were carried out using the PP2Ac immunoprecipitation phosphatase assay kit (Millipore). Briefly, protein lysates (50 μg) in 100 μl of 20 mM Hepes. pH 7.0, 100 mM NaCl, 5 μg of PP2Ac antibody (Millipore), and 25 μl of Protein A-agarose were added to 400 μl of 50 mM Tris, pH 7.0, 100 mM CaCl2, and IPs were carried out at 4° C. for 2 h. IPs were used in the phosphatase reaction according to the manufacturer's protocol.

B lymphocytes = assay: B-lymphopenia induction; conditions: in vivo
S1PR1 = S1PR1 (Homo sapiens, UniProt P21453); assay: S1PR1 internalization; format: cell-based
[6] = test system: normal CD34^+ progenitors; assay: Toxicity to normal progenitors; format: cell-based, human; conditions: at concentrations that impair Ph^+ HSC survival
CML cells = assay: Long term culture-initiating cell (LTC-IC) assay; format: cell-based, human; conditions: drug during first week of 6-week culture, vs untreated
Description: (§2) Long term culture-initiating cell (LTC-IC) and Colony-forming cell (CFC)/replating assays. 2×10^6 mononuclear CML cells were cultured with a 1:1 mixture of irradiated (80 Gy) IL-3/G-CSF-producing M2-10B4 and IL-3/KL-producing SI/SI murine fibroblasts in MyeloCult H5100 (StemCell Technologies) supplemented with hydrocortisone. Drugs were present during the first week of culture. Medium was replaced after 7 days, followed by weekly half-medium changes. After 6 weeks, adherent and floating cells were harvested and 5×10^4 cells plated into MethoCult H4435. LTC-IC-derived colonies were scored after 14 days. For CFC/replating, individual 14-day colonies from 10^3-10^5 CD34+/CD38− CML or 0.2×10^3-10^3 leukemic LSK cells plated in 0.9% H4435 or M3234 MethoCult, respectively, containing KL, G-CSF, GM-CSF, IL-3, IL-6, and Epo were replated and scored 2 weeks later.

CD34+/CD38− CML cells = assay: CFC/replating assay, CML cells; format: cell-based, human
Description: as §2

β-catenin = β-catenin immunofluorescence; format: cell-based, human; conditions: CD34^+/CD38^− CML, leukemic LSK, and 32D-BCR/ABL cells
Excerpt: Immunofluorescence and proximity ligation assay. CD34^+/CD38^− cells from CML patient samples or LSK cells derived from induced leukemic mice were sorted, treated in liquid culture with the indicated drugs and cytospun onto glass slides. Slides were fixed in 3.7% formaldehyde, penneabilized with 0.05% Triton X-100, and stained with an Anti-®-catenin primary antibody (Cell signaling), a secondary goat F(ab′) anti-rabbit conjugated to Alexa Fluor 647, and the nuclear stain DAPI (Invitrogen); slides were mounted with Slowfade antifade reagent (Invitrogen). Microphotographs were obtained with a Zeiss LSM 510 confocal laser-scanning microscope with C-Apochromat 63/1.2 W objective. A minimum of three fields for each slide were acquired. For the Proximity Ligation Assay (PLA) CD34+/CD38− CML cells were treated, fixed, and permeabilized as described above. The slides were then simultaneously stained with a mix of mouse anti-PP2A (Millipore) and rabbit anti-SET (Globozyme) antibodies. The PLA procedure (Duolink; Olink Bioscience) was performed according to manufacturer instructions. An average of 20 z-stack ([…]) were captured with a Zeiss LSM 510 confocal laser-scanning microscope with C-Apochromat 63/1.2 W objective; at least three fields/slide were acquired. Three-dimensional projections were generated and positive signals/cell were calculated by ImageJ software (NIH).

T1 sequence (P67775 whole entry): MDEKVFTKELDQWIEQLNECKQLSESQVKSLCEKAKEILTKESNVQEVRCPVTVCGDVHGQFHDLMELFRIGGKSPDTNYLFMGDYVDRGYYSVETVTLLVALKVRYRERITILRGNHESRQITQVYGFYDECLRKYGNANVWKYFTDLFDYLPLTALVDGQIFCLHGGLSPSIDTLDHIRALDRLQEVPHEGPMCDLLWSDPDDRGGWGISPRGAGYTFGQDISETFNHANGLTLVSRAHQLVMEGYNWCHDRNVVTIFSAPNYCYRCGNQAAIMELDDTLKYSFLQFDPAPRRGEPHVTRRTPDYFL
Sequence of S1PR1 (P21453 whole entry, species assumed): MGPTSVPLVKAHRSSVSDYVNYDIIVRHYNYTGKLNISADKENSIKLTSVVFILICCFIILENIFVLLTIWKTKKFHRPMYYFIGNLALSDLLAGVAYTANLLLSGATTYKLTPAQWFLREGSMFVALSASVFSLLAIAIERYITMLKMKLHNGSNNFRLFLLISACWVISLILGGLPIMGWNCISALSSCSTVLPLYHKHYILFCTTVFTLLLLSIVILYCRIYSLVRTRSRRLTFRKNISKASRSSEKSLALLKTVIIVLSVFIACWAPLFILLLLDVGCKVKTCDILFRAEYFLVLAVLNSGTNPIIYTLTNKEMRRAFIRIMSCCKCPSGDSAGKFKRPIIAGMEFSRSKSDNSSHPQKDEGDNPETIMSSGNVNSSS

β-catenin transcriptional activity (LEF/TCF luciferase) [1]: markedly impaired
Compound: C=C[C@@]1(C)CC(=O)[C@@H]2[C@@]3(C)CCCC(C)(C)[C@@H]3[C@H](O)[C@H](OC(C)=O)[C@@]2(C)O1 [1,9-dideoxy-forskolin]

Compound: CCCCCCCCc1ccc(CCC(N)(CO)COP(=O)(O)O)cc1 (stereo not shown) [FTY-P]
PP2A activity induction (PP2A [2]): did not induce PP2A activity | apoptosis of quiescent/HSC-enriched CML cells ([3]; CFSE^max/CD34^+ or CD34^+/CD38^− CML cells): failed to induce apoptosis

Compound: [Cl-].[Li+] [LiCl, lithium chloride]
effect on FTY720-induced apoptosis of quiescent cells [3]: abrogated FTY720-induced apoptosis

PP2A activation (PP2A [5]): activated PP2A | S1PR1 internalization (S1PR1): without triggering S1PR1 internalization
Compound: CCCC(N)(CO)CCc1ccc(OCCCCCC(C)C)cc1 (stereo not shown) [OSU-2S]
effect on CML CFSE^max cells ([4]; CML n=9): significantly reduced | B-lymphopenia (B lymphocytes): without triggering S1PR1 internalization or inducing B-lymphopenia

Compound: Cn1cc(C2=C(c3ccc(Cl)cc3Cl)C(=O)NC2=O)c2ccccc21 [SB216763]
effect on FTY720-induced apoptosis of quiescent cells [3]: abrogated FTY720-induced apoptosis

β-catenin transcriptional activity (LEF/TCF luciferase) [1]: markedly impaired
Compound: Cc1cnc(Nc2ccc(OCCN3CCCC3)cc2)nc1Nc1cccc(S(=O)(=O)NC(C)(C)C)c1 [TG101348]
decrease in CFSE^max (quiescent) CML HSCs ([4]; CFSE-labeled CD34^+ CML cells, FTY720 at 2.5 μM): 50% | toxicity to normal CD34^+ progenitors [6]: toxicity of TG101348 to normal CD34^+ progenitors | inhibition of LTC-ICs (CML cells): ~80% | reduction in replating efficiency (CD34+/CD38− CML cells): ~75%

Compound: Cc1ccc(NC(=O)c2ccc(CN3CCN(C)CC3)cc2)cc1Nc1nccc(-c2cccnc2)n1 [imatinib, imatinib mesylate]
β-catenin degradation (β-catenin): but not imatinib (n=3) induced β-catenin degradation

Compound: C=C1[C@@H](O)[C@@H]2O[C@]3(CC[C@H](/C=C/[C@@H](C)[C@@H]4CC(C)=C[C@@]5(O[C@H](C[C@@](C)(O)C(=O)O)CC[C@H]5O)O4)O3)CC[C@H]2O[C@@H]1[C@@H](O)C[C@H](C)[C@H]1O[C@@]2(CCCCO2)CC[C@H]1C [okadaic acid]
effect on FTY720-induced decrease of CFSE^max HSCs ([4]; 0.25 nM okadaic acid with FTY720): antagonized
